The source made the active and inactive calls.
Legend:
[1] = tested on: Vero; assay: cells; format: functional, cell-based; conditions: Chlorocebus sabaeus
[2] = tested on: Vero; assay: cells; format: functional; conditions: Chlorocebus sabaeus
[3] = intracellular Trypanosoma cruzi inhibitors in host cells – cell-based, plate reader, cherry-pick samples, set 3, dose response (AID 651818); format: functional;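 further: compounds incubated with infected cells for about four days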
[4] = target: T1, Fatty acid synthase (Homo sapiens, UniProt P49327); assay: FAS thioesterase domain inhibitors, dose response, biochemical, endpoint fluorescence intensity, uHTS hits (AID 624327); format: functional;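 further: fluorescence from hydrolysis of an O-methyl fluorescein acyl ester substrate by the enzyme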
[5] = target: T1, Fatty acid synthase; assay: FAS thioesterase domain inhibitors, dose response, biochemical, kinetic fluorescence intensity (AID 624326); format: functional;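 further: rate of fluorescence rise from hydrolysis of a fluorogenic O-methyl fluorescein ester substrate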
[6] = HeLa cell cytotoxicity, dose response, cytotoxicity control for MgcRacGAP inhibitor project (AID 624300); format: functional
[7] = target: T2, Rac GTPase-activating protein 1 (Homo sapiens, UniProt Q9H0H5); assay: MgcRacGAP GTPase-activating activity inhibitors, confirmation, biochemical, ADP Hunter fluorescence, primary and confirmatory (AID 624330); format: functional
T2 sequence (Q9H0H5 whole entry): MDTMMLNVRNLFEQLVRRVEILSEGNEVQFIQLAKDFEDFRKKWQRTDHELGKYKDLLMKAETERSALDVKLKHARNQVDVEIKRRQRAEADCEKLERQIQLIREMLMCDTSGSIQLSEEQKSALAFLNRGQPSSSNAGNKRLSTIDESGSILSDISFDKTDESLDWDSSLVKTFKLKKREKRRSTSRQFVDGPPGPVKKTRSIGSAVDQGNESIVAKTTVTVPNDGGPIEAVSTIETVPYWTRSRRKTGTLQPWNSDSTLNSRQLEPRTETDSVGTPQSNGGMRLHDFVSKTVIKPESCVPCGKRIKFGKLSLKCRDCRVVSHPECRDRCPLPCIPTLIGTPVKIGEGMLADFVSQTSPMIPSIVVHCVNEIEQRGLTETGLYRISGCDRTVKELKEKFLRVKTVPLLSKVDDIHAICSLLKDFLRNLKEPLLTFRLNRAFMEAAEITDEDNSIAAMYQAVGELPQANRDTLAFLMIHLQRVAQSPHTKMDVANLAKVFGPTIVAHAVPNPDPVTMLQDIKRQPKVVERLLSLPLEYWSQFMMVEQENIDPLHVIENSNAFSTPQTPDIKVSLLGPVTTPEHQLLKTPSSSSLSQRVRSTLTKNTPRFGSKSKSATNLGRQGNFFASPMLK

[8] = P. falciparum 3D7-ScDHODH growth inhibitors, dose response, SYBR Green, dry powder samples (AID 1159570); format: functional, cell-based;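 further: parasite growth measured after 72 hours of compound exposure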
[9] = P. falciparum Dd2 growth inhibitors, dose response, SYBR Green, cherry-picked samples (AID 1159567); format: functional, cell-based
[10] = P. falciparum Dd2 growth inhibitors, dose response, SYBR Green, dry powder samples (AID 1159566); format: functional, cell-based;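 further: potency for growth inhibition with lower SYBR green DNA signal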
[11] = P. falciparum ATP4 D1247Y mutant growth inhibitors, dose response, NITD609-resistant line, SYBR Green, dry powder (AID 1159571); format: functional, cell-based;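 further: parasites synchronized at ring stage by sorbitol before testing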
[12] = inhibitors of intracellular T. cruzi replication, confirmation, NIH3T3 host cells, beta-gal luminescence (AID 2044); format: functional, cell-based;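 further: intracellular parasites grown in NIH/3T3 mouse fibroblasts as host cells; luminescent beta-galactosidase reporter signal from transgenic T. cruzi replicating inside host cells; inhibitors lower the luminescence signal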
[13] = cytotoxicity toward NIH3T3 fibroblasts, dose response, counter-screen, cell-based, ATP luminescence, mouse fibroblasts (AID 2010); format: functional;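 further: cells exposed to compound for about 90 hours before reading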
[14] = target: DNA dC->dU-editing enzyme APOBEC-3G (Homo sapiens, UniProt Q9HC16); assay: Dose Response confirmation of small molecule APOBEC3G DNA Deaminase Inhibitors via a fluorescence-based single-stranded DNA deaminase assay. [Related pubchem assays (depositor defined):AID493012, AID493028]; format: functional
[15] = target: Glyceraldehyde-3-phosphate dehydrogenase (Homo sapiens, UniProt P04406)
[16] = target: T3, Replicative DNA helicase DnaB (Mycobacterium tuberculosis, UniProt P9WMR3); assay: DnaB intein splicing inhibitors, dose response, biochemical, cell-free fluorescence (AID 449749); format: functional
T3 sequence (P9WMR3 whole entry): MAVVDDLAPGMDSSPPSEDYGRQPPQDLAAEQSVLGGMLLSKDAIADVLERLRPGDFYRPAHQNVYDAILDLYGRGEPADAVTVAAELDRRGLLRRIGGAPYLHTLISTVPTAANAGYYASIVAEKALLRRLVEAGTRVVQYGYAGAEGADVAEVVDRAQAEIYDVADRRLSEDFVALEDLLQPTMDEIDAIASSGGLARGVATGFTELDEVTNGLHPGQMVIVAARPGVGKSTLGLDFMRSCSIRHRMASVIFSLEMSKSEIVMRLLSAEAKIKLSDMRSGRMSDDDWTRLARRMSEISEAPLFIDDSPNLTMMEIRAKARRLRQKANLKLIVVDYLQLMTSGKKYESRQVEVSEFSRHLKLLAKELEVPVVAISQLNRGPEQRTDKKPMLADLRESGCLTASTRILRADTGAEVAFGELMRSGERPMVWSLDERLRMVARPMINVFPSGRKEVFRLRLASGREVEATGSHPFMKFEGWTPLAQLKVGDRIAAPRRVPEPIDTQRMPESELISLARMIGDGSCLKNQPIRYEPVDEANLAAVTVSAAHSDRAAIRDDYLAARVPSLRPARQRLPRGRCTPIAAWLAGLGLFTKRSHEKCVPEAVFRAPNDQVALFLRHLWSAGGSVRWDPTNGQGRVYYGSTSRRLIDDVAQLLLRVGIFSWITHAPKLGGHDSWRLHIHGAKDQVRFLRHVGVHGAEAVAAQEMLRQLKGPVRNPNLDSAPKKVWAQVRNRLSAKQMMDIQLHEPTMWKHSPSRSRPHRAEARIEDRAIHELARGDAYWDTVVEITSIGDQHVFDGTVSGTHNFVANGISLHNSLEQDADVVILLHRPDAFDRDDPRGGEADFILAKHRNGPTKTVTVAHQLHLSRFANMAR

[17] = target: T4, Protein RecA (Mycobacterium tuberculosis, UniProt P9WHJ3); assay: Fluorescence Cell-Free Homogeneous Dose Retest to Identify Inhibitors of RecA-Intein Splicing Activity. [Related pubchem assays (depositor defined):AID2097, AID2223, AID489010, AID492950]; format: functional
T4 sequence (P9WHJ3 whole entry): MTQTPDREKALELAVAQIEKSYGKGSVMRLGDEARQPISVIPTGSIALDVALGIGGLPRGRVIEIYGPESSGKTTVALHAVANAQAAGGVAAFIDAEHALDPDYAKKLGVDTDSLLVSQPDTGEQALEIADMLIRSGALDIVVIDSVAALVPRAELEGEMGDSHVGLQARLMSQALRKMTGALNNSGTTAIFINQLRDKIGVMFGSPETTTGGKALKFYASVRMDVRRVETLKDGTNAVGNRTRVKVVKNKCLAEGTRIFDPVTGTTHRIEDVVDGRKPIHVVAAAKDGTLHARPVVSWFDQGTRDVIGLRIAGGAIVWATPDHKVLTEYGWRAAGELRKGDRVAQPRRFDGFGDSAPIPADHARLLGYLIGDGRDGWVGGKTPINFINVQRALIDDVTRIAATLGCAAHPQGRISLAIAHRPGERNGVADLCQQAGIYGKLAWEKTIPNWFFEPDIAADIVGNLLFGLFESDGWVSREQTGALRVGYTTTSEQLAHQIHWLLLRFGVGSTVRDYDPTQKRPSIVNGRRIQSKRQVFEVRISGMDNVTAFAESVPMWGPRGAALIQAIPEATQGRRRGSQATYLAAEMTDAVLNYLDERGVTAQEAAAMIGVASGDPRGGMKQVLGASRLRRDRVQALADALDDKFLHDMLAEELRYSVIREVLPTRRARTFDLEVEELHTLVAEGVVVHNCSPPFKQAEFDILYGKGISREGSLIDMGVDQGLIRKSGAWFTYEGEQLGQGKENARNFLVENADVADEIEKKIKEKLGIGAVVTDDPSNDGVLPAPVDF

[18] = target: Genome polyprotein (dengue virus type 2, UniProt P29990); assay: Dengue-2 NS5 methyltransferase inhibitors, primary screen, biochemical, confirmation dose response (AID 588689); format: functional
Genome polyprotein, sequence (P29990 2492-3391 limits assumed): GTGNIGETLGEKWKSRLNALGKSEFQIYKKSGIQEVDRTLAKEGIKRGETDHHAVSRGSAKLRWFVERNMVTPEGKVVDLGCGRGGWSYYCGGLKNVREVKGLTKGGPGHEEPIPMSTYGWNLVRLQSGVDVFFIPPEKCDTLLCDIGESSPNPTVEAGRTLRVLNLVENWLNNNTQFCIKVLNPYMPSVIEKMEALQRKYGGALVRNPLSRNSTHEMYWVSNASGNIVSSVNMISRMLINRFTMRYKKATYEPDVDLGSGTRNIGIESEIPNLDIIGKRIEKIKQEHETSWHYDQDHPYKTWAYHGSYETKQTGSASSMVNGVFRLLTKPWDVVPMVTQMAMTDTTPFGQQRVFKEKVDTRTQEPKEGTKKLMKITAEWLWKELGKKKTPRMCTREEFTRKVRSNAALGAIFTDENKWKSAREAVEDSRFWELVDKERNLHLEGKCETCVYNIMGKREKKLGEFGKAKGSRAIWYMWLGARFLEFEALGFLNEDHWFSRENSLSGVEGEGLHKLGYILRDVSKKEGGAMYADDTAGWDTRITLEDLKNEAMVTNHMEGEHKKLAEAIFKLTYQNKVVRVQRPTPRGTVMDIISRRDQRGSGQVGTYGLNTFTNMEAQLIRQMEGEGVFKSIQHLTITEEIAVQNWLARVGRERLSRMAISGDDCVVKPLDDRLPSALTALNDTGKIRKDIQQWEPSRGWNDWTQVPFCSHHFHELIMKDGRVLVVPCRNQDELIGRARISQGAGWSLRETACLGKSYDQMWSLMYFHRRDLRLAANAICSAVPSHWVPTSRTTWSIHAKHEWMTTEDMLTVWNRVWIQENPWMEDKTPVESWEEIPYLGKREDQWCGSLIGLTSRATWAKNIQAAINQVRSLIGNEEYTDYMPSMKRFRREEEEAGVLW

T1 sequence (P49327 whole entry, the tested form may be a part): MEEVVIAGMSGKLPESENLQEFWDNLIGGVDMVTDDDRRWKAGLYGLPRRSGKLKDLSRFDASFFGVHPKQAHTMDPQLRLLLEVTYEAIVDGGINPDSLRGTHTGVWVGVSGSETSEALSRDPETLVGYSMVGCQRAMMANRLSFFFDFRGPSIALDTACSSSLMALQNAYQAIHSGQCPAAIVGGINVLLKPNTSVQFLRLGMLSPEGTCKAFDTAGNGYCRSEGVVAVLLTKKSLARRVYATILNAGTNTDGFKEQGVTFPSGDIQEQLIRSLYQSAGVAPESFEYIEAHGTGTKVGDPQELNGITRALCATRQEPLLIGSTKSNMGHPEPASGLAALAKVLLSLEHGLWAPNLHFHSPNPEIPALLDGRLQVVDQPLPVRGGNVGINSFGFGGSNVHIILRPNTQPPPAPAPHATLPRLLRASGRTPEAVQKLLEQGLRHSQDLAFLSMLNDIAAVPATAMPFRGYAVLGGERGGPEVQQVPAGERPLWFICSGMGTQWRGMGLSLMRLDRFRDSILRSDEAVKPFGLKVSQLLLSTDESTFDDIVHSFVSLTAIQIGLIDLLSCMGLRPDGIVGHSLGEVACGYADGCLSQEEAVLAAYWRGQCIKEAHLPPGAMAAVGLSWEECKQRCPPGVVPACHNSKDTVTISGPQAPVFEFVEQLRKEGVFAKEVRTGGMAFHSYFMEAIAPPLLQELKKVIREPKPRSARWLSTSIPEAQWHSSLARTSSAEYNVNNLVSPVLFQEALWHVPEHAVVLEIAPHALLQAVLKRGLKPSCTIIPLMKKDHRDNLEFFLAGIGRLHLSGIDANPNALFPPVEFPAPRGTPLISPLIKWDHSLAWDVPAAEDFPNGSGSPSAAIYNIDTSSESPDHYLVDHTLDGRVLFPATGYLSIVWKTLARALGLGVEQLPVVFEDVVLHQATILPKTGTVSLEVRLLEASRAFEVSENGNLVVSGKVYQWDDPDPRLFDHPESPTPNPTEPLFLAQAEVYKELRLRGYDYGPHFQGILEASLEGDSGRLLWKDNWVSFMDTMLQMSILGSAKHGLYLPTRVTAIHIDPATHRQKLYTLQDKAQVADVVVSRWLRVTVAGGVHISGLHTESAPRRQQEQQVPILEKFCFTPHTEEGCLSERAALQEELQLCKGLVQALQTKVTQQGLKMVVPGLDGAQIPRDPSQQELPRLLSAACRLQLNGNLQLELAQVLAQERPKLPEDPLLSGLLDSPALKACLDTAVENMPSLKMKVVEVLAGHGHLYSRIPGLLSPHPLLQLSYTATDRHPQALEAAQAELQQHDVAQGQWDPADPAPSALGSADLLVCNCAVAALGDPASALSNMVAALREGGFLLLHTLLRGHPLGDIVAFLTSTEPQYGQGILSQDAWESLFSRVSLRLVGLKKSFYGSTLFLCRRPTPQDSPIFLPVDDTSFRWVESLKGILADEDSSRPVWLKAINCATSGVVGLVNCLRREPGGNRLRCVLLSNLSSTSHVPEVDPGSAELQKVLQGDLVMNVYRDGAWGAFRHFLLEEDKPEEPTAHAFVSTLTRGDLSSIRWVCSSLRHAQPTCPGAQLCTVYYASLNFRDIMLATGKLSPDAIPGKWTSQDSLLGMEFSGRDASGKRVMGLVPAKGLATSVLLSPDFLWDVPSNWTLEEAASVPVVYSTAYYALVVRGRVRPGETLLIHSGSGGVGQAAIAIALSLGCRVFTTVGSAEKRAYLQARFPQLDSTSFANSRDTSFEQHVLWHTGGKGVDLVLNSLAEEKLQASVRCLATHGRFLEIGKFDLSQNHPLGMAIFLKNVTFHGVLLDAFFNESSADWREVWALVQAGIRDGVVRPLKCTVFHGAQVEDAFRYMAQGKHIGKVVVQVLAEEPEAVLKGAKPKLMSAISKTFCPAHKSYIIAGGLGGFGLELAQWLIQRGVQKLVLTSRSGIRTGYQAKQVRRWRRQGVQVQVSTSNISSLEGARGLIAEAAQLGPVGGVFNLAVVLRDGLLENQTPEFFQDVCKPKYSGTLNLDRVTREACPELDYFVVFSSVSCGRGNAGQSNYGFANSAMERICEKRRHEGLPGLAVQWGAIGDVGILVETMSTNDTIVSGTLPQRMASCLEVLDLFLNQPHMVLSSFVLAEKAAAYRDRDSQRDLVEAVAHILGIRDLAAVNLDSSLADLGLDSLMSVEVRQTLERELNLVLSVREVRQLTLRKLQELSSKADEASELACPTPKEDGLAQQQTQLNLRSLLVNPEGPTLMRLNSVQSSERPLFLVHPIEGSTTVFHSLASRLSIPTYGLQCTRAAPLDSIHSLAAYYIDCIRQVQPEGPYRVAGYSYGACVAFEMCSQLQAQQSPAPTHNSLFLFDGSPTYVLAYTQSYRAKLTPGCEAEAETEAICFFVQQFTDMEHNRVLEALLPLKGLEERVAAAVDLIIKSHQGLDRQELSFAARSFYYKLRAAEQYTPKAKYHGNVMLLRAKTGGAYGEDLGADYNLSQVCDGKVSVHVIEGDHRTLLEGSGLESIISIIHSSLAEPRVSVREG
Glyceraldehyde-3-phosphate dehydrogenase, sequence (P04406 whole entry): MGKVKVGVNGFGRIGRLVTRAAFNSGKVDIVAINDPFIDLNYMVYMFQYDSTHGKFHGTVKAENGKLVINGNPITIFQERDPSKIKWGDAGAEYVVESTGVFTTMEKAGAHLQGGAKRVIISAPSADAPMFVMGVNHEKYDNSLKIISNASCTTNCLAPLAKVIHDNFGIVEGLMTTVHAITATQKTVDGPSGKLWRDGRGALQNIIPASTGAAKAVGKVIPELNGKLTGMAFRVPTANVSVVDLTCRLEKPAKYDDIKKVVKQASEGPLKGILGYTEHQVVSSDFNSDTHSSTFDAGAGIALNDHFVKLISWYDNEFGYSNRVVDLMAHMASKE
DNA dC->dU-editing enzyme APOBEC-3G, sequence (Q9HC16 whole entry): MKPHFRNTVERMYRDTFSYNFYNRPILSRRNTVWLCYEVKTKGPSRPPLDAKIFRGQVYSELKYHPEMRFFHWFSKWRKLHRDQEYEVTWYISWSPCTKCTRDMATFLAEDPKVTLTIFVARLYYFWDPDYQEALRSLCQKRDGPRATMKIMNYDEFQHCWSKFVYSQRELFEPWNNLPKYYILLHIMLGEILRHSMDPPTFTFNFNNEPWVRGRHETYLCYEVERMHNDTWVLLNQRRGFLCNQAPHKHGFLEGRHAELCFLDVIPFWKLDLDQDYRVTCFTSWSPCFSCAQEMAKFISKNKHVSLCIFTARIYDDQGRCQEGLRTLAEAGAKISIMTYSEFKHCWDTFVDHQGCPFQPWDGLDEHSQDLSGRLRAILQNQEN

For CCc1c(C(=O)NC2CCCc3ccccc32)[nH]c(C)c1C(C)=O (stereo unspecified), the IC50 [1] was 9.95 µM (active) and the CC50 [2] was > 25 µM (active).
In the case of Cc1ccc2oc(=O)c3cnn(CC(=O)Nc4ccccc4N4CCN(C)CC4)c3c2c1, the IC50 [1] is reported as 9.16 µM (active).
With COc1ccc(S(=O)(=O)Nc2cccc3c2O[C@@H](CN(C)Cc2ccc(C(=O)Nc4ccccc4N)cc2)[C@H](C)CN([C@@H](C)CO)C3=O)cc1 the AC50 [3] was 3.61 µM (active).
For C[C@@H]1CN([C@H](C)CO)C(=O)Cc2cc(NC(=O)NC3CCCCC3)ccc2O[C@H]1CN(C)Cc1ccc(Oc2ccccc2)cc1, the AC50 [3] was 3.58 µM (active).
In the case of Cc1ccc(C(=O)O/N=C(\N)Cc2cccs2)cc1[N+](=O)[O-], the IC50 [4] is reported as 9.57 µM (active) and the IC50 [5] is reported as 8.33 µM (active).
In the case of C[C@H]1CN([C@@H](C)CO)C(=O)c2cc(NS(=O)(=O)c3ccc(F)cc3)ccc2O[C@@H]1CN(C)Cc1ccc(Cl)c(Cl)c1, the AC50 [3] is reported as 4.6 µM (active).
With c1ccc2c(c1)Nc1ccncc1S2 the CC50 [6] was 100 µM (active) and the IC50 [7] was 269 µM (active).
For C[C@@H]1CN([C@@H](C)CO)C(=O)c2cccc(NC(=O)c3nc4ccccc4s3)c2O[C@H]1CN(C)C(=O)NC1CCCCC1, the AC50 [8] was 0.846 µM (active), the AC50 [9] was 1.37 µM (active) and the AC50 [10] was 1.08 µM (active). For the same compound, the AC50 [11] was 1.05 µM (active).
With O=C(CSc1ncnc2c1cnn2-c1ccccc1)NC1CCCC1 the IC50 [4] was 5.94 µM (active) and the IC50 [5] was 5.67 µM (active).
For COc1ccc(-n2c(SCC(=O)C(C)(C)C)nc3c(sc(=S)n3-c3ccccc3)c2=O)c(OC)c1, the EC50 [12] was 0.714 µM (active), the EC50 [13] was > 60 µM (not active) and the IC50 [14] was 66.5 µM (active).
For O=C1C(Cl)=C(N2CCN(Cc3ccccc3)CC2)C(=O)N1c1ccc(Cl)nc1, the IC50 [15] was > 50 µM (inconclusive).
In the case of Cc1oc2c(c1C(=O)Nc1cccc(C(=O)O)c1)CCCC2, the IC50 [15] is reported as > 100 µM (not active).
With O=C(O)CN1C(=O)/C(=C\c2cccc(OCc3ccc(Cl)cc3Cl)c2)SC1=S the AC50 [16] was 2.73 µM (active), the EC50 [17] was 11.1 µM (active) and the IC50 [18] was 36 µM (active).
With O=C(CN(CC(=O)N1CCOCC1)S(=O)(=O)c1ccc(Br)s1)N1CCOCC1 the IC50 [14] was 74.3 µM (active).
For CN(C)C=O.O=C(O)c1ccccc1NS(=O)(=O)c1ccc(NN=Cc2ccc(F)cc2)c([N+](=O)[O-])c1, the IC50 [4] was 7.9 µM (active) and the IC50 [5] was 4.43 µM (active).
With C[C@H]1CN([C@@H](C)CO)C(=O)c2c(c3ccccc3n2C)-c2ccccc2CO[C@@H]1CN(C)C(=O)Nc1ccc(-c2ccccc2)cc1 the AC50 [8] was 0.787 µM (active), the AC50 [9] was 1.38 µM (active) and the AC50 [10] was 0.507 µM (active). The AC50 [11] was 0.532 µM (active).
In the case of C[C@H](CO)N1C[C@H](C)[C@@H](CN(C)Cc2ccncc2)Oc2c(NC(=O)Nc3ccc(C(F)(F)F)cc3)cccc2C1=O, the AC50 [3] is reported as 2.97 µM (active).
In the case of CC1CCCN(CCOc2ccc3ccccc3c2Br)C1 (stereo unspecified), the CC50 [6] is reported as 68.9 µM (active) and the IC50 [7] is reported as 142 µM (active).
In the case of C[C@H](CO)N1C[C@H](C)[C@H](CN(C)CC2CC2)Oc2ccc(NC(=O)Nc3ccccc3)cc2CC1=O, the AC50 [8] is reported as 3.81 µM (active), the AC50 [9] is reported as 2.08 µM (active) and the AC50 [10] is reported as 3.39 µM (active). For the same compound, the AC50 [11] was 4.64 µM (active).
For C[C@@H]1CCCCO[C@H](CN(C)C(=O)C2CCCCC2)[C@@H](C)CN([C@H](C)CO)C(=O)c2cc(NC(=O)Nc3ccc(C(F)(F)F)cc3)ccc2O1, the AC50 [3] was 6.88 µM (active).
With O=C(COC(=O)c1cc([N+](=O)[O-])ccc1Cl)NCCc1ccccc1 the IC50 [4] was 3.93 µM (active) and the IC50 [5] was 5.26 µM (active).

From ChEMBL document CHEMBL1201862, “PubChem BioAssay data set” (2004)
